# Earlier results, collected in patent publication US20020044913A1, “Cosmetics to support skin metabolism” (priority 2000, published 2002).
# Where two headings read alike, the source gives them in different places.
# Legend:
# apoptosis = details: through its action in the mitochondria
# [1] = test system: senescent myocardium (human atrial tissue and rats)
# [2] = daily supplements of up to 200 mg for 6-12 months and 100 mg daily for up to 6 y
# [3] = test system: carnitine-acetyl-carnitine exchange across the inner mitochondrial membrane
# aged rats = details: supplementation
# oxidant production = details: carnitine supplementation
# skeletal muscle = details: older individuals (40-73), 20 g/day, one week
# [4] = not given; remark: listed apart in the source
smiles,measurement,setting,value
"COC1=C(OC)C(=O)C(C/C=C(\C)CC/C=C(\C)CC/C=C(\C)CC/C=C(\C)CC/C=C(\C)CC/C=C(\C)CC/C=C(\C)CC/C=C(\C)CC/C=C(\C)CCC=C(C)C)=C(C)C1=O [Q10, Coenzyme Q10]",programmed cell death (apoptosis),apoptosis,appears to block programmed cell death
same,benefit of supplementation,"older Finnish men, 100 mg/day",obtained benefit
same,clinical improvement,"woman deficient in Q10, 150 mg/kg",rapidly improved
same,tolerance of senescent myocardium to aerobic and ischemic stress,[1]; human atrial tissue and rats,improves the tolerance
same,recovery of function in older hearts,[1]; older vs younger hearts,corrected the age-specific diminished recovery of function in older hearts
same,adverse effects,[2],No important adverse effects
CC(=O)O[C@H](CC(=O)[O-])C[N+](C)(C)C [acetyl-L-carnitine],age-associated decrease in mtDNA transcription,[3],reverse
same,age-related decrease in cardiolipin,[3],reverse the age-related decrease in cardiolipin
same,age-related decrease of carnitine-acetyl-carnitine exchange activity,[3],slow or reverse this age-related dysfunction
same,decreased membrane potential,[3],reverse
COc1c(O)c(C)c(C/C=C(\C)CC/C=C(\C)CC/C=C(\C)CC/C=C(\C)CC/C=C(\C)CC/C=C(\C)CC/C=C(\C)CC/C=C(\C)CC/C=C(\C)CCC=C(C)C)c(O)c1OC [ubiquinol-10],oxidative damage to DNA,human lymphocytes,appears to protect human lymphocytes from oxidative damage to DNA
O=C(O)CCCC[C@@H]1CCSS1 [R-α-lipoic acid],age-related decline in mitochondrial membrane potential,aged rats,restore the age-related decline in mitochondrial membrane potential
same,age-related decrease in oxygen consumption,aged rats,reverse the age-related decrease in oxygen consumption
same,age-related increase in oxidants,aged rats,significantly lower
same,glutathione and ascorbic acid levels,aged rats,restore glutathione and ascorbic acid levels to youthful levels
same,ambulatory activity of aged rats,aged rats; aged rats,triple
C[N+](C)(C)CC(O)CC(=O)[O-] (stereo not shown) [carnitine],cell antioxidants,oxidant production,decreased cell antioxidants markedly
same,increase in oxidant production,oxidant production,30%
C[N+](C)(C)C[C@H](O)CC(=O)[O-] [L-carnitine],age-associated decrease in mtDNA transcription,[3],reverse
same,age-related decrease in cardiolipin,[3],reverse the age-related decrease in cardiolipin
same,age-related decrease of carnitine-acetyl-carnitine exchange activity,[3],slow or reverse this age-related dysfunction
same,decreased membrane potential,[3],reverse
CN(CC(=O)O)C(=N)N [creatine],skeletal muscle strength and endurance,skeletal muscle,Increased skeletal muscle strength and endurance
same,safety,[4]; 1.5 g-25 g/day for period of at least a year,safe
same,adverse effects,"[4]; athletes, doses up to 75 grams a day for years","without known adverse effects, aside from weight gain"
